Experimental data published in US20210330611A1, “THERAPY FOR NEUROLOGICAL DISEASES/DISORDERS” (priority 2020, published 2021).
Structures can show the parent of a compound that is named as a salt. Where two headings read alike, the source gives them in different places.

How the values were obtained:
[1] = tested on: fibrin-induced microglia activation; assay: Image-based assay of fibrin-induced microglia activation (HTS and dose response); assay type: cell-based, rat; settings: primary microglia HTS, fibrin stimulation; for inhibition at 10 µM: Rattus norvegicus, Microglia, read-out: Fibrin % inhibition
[2] = tested on: LPS-induced microglia activation; assay: Image-based assay of LPS-induced microglia activation (HTS and dose response); assay type: cell-based, rat; settings: for inhibition at 10 µM: Rattus norvegicus, Microglia, read-out: LPS % inhibition
[3] = tested on: fibrin- and LPS-induced microglia activation; assay: cells; assay type: cell-based, rat
primary rat microglia [4] = tested on: primary rat microglia
primary rat microglia [5] = assay: Cell toxicity (dead cells, size <150 μm2) in coated fibrin (cFib) assay; settings: primary microglia HTS;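 note: share of dead cells sized under 150 µm2 at 10 µM in fibrin-stimulated microglia HTS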
[6] = primary microglia HTS, LPS stimulation, compounds at 10 μM
[7] = classification by fibrin and LPS inhibition, HTS at 10 μM
[8] = fibrin assay, dead cells (size <150 μm2), compounds at 10 μM
[9] = primary microglia HTS, LPS stimulation, compounds at 10 μM, 10 µM
[10] = quadrant by fibrin and LPS inhibition, HTS at 10 μM
[11] = fibrin assay, dead cells (size <150 μm2)
[12] = cell size >800 μm2 as marker of activation
[13] = classification by fibrin and LPS inhibition in HTS
[14] = fibrin stimulation, cell size <150 μm2 as marker of toxicity

Molecule: OC[C@@H](O)[C@@H](O)CO [Erythritol]
- inhibition at 10 µM ([1]; compounds at 10 μM): -25%
- inhibition at 10 µM [2, 6]: 10%
- Quadrant (FIG. 5b) [3, 7]: Q4
- LPS % cell toxicity (primary rat microglia [4]; rat): 0%
- Fibrin % cell toxicity (primary rat microglia [5]; [8]): 1%

Molecule: CCCCC(O)c1ccccc1 (centres unmarked) [Fenipentol]
- Fibrin % inhibition ([1]; compounds at 10 μM): −1%
- LPS % inhibition [2, 6]: 25%
- Quadrant (FIG. 5b) [3, 7]: Q4
- LPS % cell toxicity (primary rat microglia [4]): 0%
- Fibrin % cell toxicity (primary rat microglia [5]; [8]): 1%

Molecule: CC/C=C\C/C=C\C/C=C\C/C=C\C/C=C\C/C=C\CCC(=O)O [Doconexent]
- inhibition at 10 µM ([1]; compounds at 10 μM): 3%
- inhibition at 10 µM [2, 6]: 11%
- Quadrant (FIG. 5b) [3, 7]: Q4
- LPS % cell toxicity (primary rat microglia [4]; rat): 0%
- Fibrin % cell toxicity (primary rat microglia [5]; [8]): 1%

Molecule: Nc1ncnc2c1ncn2[C@@H]1O[C@H](COP(=O)(O)O)[C@@H](O)[C@H]1O [Adenosine Phosphate]
- Fibrin % inhibition ([1]; compounds at 10 μM, 10 µM): 6%
- LPS % inhibition [2, 9]: 31%
- Quadrant (FIG. 5b) [3, 10]: Q4
- LPS % cell toxicity (primary rat microglia [4]; rat): 2%
- Fibrin % cell toxicity (primary rat microglia [5]; [11]): 1%

Molecule: O=P(O)(O)C(O)(Cc1cccnc1)P(=O)(O)O [Risedronate]
- inhibition at 10 µM [1, 12]: 47%
- inhibition at 10 µM ([2]; 48 h): 15%
- Quadrant (FIG. 5b) [3, 13]: Q4
- LPS % cell toxicity (primary rat microglia [4]; rat): 0%
- Fibrin % cell toxicity (primary rat microglia [5]; [14]): 1%

Molecule: Cyanocobalamin
- Fibrin % inhibition ([1]; compounds at 10 μM): −1%
- LPS % inhibition [2, 6]: 11%
- Quadrant (FIG. 5b) [3, 7]: Q4
- LPS % cell toxicity (primary rat microglia [4]): 0%
- Fibrin % cell toxicity (primary rat microglia [5]; [8]): 1%

Molecule: CC[N+](C)(C)c1cccc(O)c1 [Edrophonium]
- inhibition at 10 µM ([1]; compounds at 10 μM): -9%
- inhibition at 10 µM [2, 6]: -2%
- Quadrant (FIG. 5b) [3, 7]: Q4
- LPS % cell toxicity (primary rat microglia [4]; rat): 0%
- Fibrin % cell toxicity (primary rat microglia [5]; [8]): 1%

Molecule: CCOC(=O)C1=C(C)NC(C)=C(C(=O)OC)C1c1cccc(Cl)c1Cl (centres unmarked) [Felodipine]
- inhibition at 10 µM ([1]; compounds at 10 μM): 2%
- inhibition at 10 µM [2, 6]: 14%
- Quadrant (FIG. 5b) [3, 7]: Q4
- LPS % cell toxicity (primary rat microglia [4]; rat): 0%
- Fibrin % cell toxicity (primary rat microglia [5]; [8]): 1%

Molecule: CO[C@H]1/C=C/O[C@@]2(C)Oc3c(C)c(O)c4c(O)c(c5c(nc6cc(C)ccn65)c4c3C2=O)NC(=O)/C(C)=C\C=C\[C@H](C)[C@H](O)[C@@H](C)[C@@H](O)[C@@H](C)[C@H](OC(C)=O)[C@@H]1C [Rifaximin]
- inhibition at 10 µM [1, 12]: 6%
- inhibition at 10 µM ([2]; 48 h): 22%
- Quadrant (FIG. 5b) [3, 13]: Q4
- LPS % cell toxicity (primary rat microglia [4]; rat): 2%
- Fibrin % cell toxicity (primary rat microglia [5]; [14]): 0%

Molecule: CCOc1ccc(Cc2nccc3cc(OCC)c(OCC)cc23)cc1OCC [Ethaverine Hydrochloride]
- inhibition at 10 µM ([1]; compounds at 10 μM): 41%
- inhibition at 10 µM [2, 6]: 24%
- Quadrant (FIG. 5b) [3, 7]: Q4
- LPS % cell toxicity (primary rat microglia [4]; rat): 1%
- Fibrin % cell toxicity (primary rat microglia [5]; [8]): 1%

Molecule: CN1CCN(c2c(F)cc3c(=O)c(C(=O)O)cn4c3c2SCC4)CC1 [Rufloxacin Hydrochloride]
- inhibition at 10 µM [1, 12]: -3%
- inhibition at 10 µM ([2]; 48 h): 21%
- Quadrant (FIG. 5b) [3, 13]: Q4
- LPS % cell toxicity (primary rat microglia [4]; rat): 0%
- Fibrin % cell toxicity (primary rat microglia [5]; [14]): 1%

Molecule: O=C1c2c(O)cccc2Cc2cccc(O)c21 [Anthralin]
- inhibition at 10 µM ([1]; compounds at 10 μM): -10%
- inhibition at 10 µM [2, 6]: 13%
- Quadrant (FIG. 5b) [3, 10]: Q4
- LPS % cell toxicity (primary rat microglia [4]; rat): 1%
- Fibrin % cell toxicity (primary rat microglia [5]; [11]): 1%

Molecule: COc1ccc2c(c1)c(CC(=O)OCC(=O)O)c(C)n2C(=O)c1ccc(Cl)cc1 [Acemetacin]
- inhibition at 10 µM ([1]; compounds at 10 μM): -16%
- inhibition at 10 µM [2, 6]: 17%
- Quadrant (FIG. 5b) [3, 10]: Q4
- LPS % cell toxicity (primary rat microglia [4]; rat): 0%
- Fibrin % cell toxicity (primary rat microglia [5]; [11]): 1%

Molecule: CN1CCN(C(=O)O[C@H]2c3nccnc3C(=O)N2c2ccc(Cl)cn2)CC1 [Eszopiclone]
- inhibition at 10 µM ([1]; compounds at 10 μM): 1%
- inhibition at 10 µM [2, 6]: 17%
- Quadrant (FIG. 5b) [3, 7]: Q4
- LPS % cell toxicity (primary rat microglia [4]; rat): 0%
- Fibrin % cell toxicity (primary rat microglia [5]; [8]): 0%

Molecule: CC[C@H]1OC(=O)[C@H](C)[C@@H](O[C@H]2C[C@@](C)(OC)[C@@H](O)[C@H](C)O2)[C@H](C)[C@@H](O[C@@H]2O[C@H](C)C[C@H](N(C)C)[C@H]2O)[C@](C)(O)C[C@@H](C)[C@@H]2N[C@@H](COCCOC)O[C@H]([C@H]2C)[C@]1(C)O [Dirithromycin]
- inhibition at 10 µM ([1]; compounds at 10 μM): 7%
- inhibition at 10 µM [2, 6]: 27%
- Quadrant (FIG. 5b) [3, 7]: Q4
- LPS % cell toxicity (primary rat microglia [4]; rat): 1%
- Fibrin % cell toxicity (primary rat microglia [5]; [8]): 1%

Molecule: CC1(C)S[C@@H]2[C@H](NC(=O)[C@H](NC(=O)N3CCNC3=O)c3ccccc3)C(=O)N2[C@H]1C(=O)O [Azlocillin Sodium]
- Fibrin % inhibition ([1]; compounds at 10 μM, 10 µM): −5%
- LPS % inhibition [2, 9]: 17%
- Quadrant (FIG. 5b) [3, 10]: Q4
- LPS % cell toxicity (primary rat microglia [4]; rat): 0%
- Fibrin % cell toxicity (primary rat microglia [5]; [11]): 0%

Molecule: CN1CC(=O)NC1=N [Creatinine]
- inhibition at 10 µM ([1]; compounds at 10 μM): -3%
- inhibition at 10 µM [2, 6]: 10%
- Quadrant (FIG. 5b) [3, 7]: Q4
- LPS % cell toxicity (primary rat microglia [4]; rat): 0%
- Fibrin % cell toxicity (primary rat microglia [5]; [8]): 1%

Molecule: CN1C(C)(C)CCCC1(C)C [Pempidine Tartrate]
- inhibition at 10 µM [1, 12]: -19%
- inhibition at 10 µM ([2]; 48 h): 13%
- Quadrant (FIG. 5b) [3, 13]: Q4
- LPS % cell toxicity (primary rat microglia [4]; rat): 0%
- Fibrin % cell toxicity (primary rat microglia [5]; [14]): 1%

Molecule: CCCCCCOC(=O)NC(=N)c1ccc(NCc2nc3cc(C(=O)N(CCC(=O)OCC)c4ccccn4)ccc3n2C)cc1 [Dabigatran etexilate]
- inhibition at 10 µM ([1]; compounds at 10 μM): 3%
- inhibition at 10 µM [2, 6]: 9%
- Quadrant (FIG. 5b) [3, 7]: Q4
- LPS % cell toxicity (primary rat microglia [4]; rat): 0%
- Fibrin % cell toxicity (primary rat microglia [5]; [8]): 0%

Molecule: CCCCc1ncc(/C=C(\Cc2cccs2)C(=O)O)n1Cc1ccc(C(=O)O)cc1 [Eprosartan]
- inhibition at 10 µM ([1]; compounds at 10 μM): -29%
- inhibition at 10 µM [2, 6]: -8%
- Quadrant (FIG. 5b) [3, 7]: Q4
- LPS % cell toxicity (primary rat microglia [4]; rat): 0%
- Fibrin % cell toxicity (primary rat microglia [5]; [8]): 1%

Molecule: Cl.NCC(O)c1ccc(O)cc1 (racemic)
- Fibrin % inhibition ([1]; compounds at 10 μM): −48%
- LPS % inhibition [2, 6]: 16%
- Quadrant (FIG. 5b) [3, 10]: Q4
- LPS % cell toxicity (primary rat microglia [4]): 0%
- Fibrin % cell toxicity (primary rat microglia [5]; [11]): 1%

Molecule: Nc1ncnc2c1ncn2[C@@H]1O[C@H](COP(=O)(O)O)[C@@H](O)[C@H]1O [Adenosine monophosphate]
- Fibrin % inhibition ([1]; compounds at 10 μM, 10 µM): −30%
- LPS % inhibition [2, 9]: 4%
- Quadrant (FIG. 5b) [3, 10]: Q4
- LPS % cell toxicity (primary rat microglia [4]; rat): 0%
- Fibrin % cell toxicity (primary rat microglia [5]; [11]): 1%

Molecule: O=c1cc[nH]c(=S)[nH]1 [2-thiouracil]
- inhibition at 10 µM ([1]; compounds at 10 μM): -15%
- inhibition at 10 µM [2, 6]: 7%
- Quadrant (FIG. 5b) [3, 10]: Q4
- LPS % cell toxicity (primary rat microglia [4]; rat): 0%
- Fibrin % cell toxicity (primary rat microglia [5]; [11]): 1%

Molecule: CC(=O)[C@H]1CC[C@H]2[C@@H]3CC=C4C[C@@H](O)CC[C@]4(C)[C@H]3CC[C@]12C [Pregnenolone]
- Fibrin % inhibition [1, 12]: −11%
- LPS % inhibition [2]: 12%
- Quadrant (FIG. 5b) [3, 13]: Q4
- LPS % cell toxicity (primary rat microglia [4]): 0%
- Fibrin % cell toxicity (primary rat microglia [5]; [14]): 1%

Molecule: CCOc1ccc2nc3cc(N)ccc3c(N)c2c1 [Ethacridine Lactate]
- inhibition at 10 µM ([1]; compounds at 10 μM): -64%
- inhibition at 10 µM [2, 6]: -8%
- Quadrant (FIG. 5b) [3, 7]: Q4
- LPS % cell toxicity (primary rat microglia [4]; rat): 0%
- Fibrin % cell toxicity (primary rat microglia [5]; [8]): 1%

Molecule: C=CCSCC1Nc2cc(Cl)c(S(N)(=O)=O)cc2S(=O)(=O)N1 (centres unmarked) [Althiazide]
- inhibition at 10 µM ([1]; compounds at 10 μM): -11%
- inhibition at 10 µM [2, 6]: 12%
- Quadrant (FIG. 5b) [3, 10]: Q4
- LPS % cell toxicity (primary rat microglia [4]; rat): 1%
- Fibrin % cell toxicity (primary rat microglia [5]; [11]): 1%

Molecule: Cc1c(NC(=O)c2cccnc2)c(=O)n(-c2ccccc2)n1C [Nifenazone]
- inhibition at 10 µM ([1]; compounds at 10 μM): 114%
- inhibition at 10 µM [2, 6]: 132%
- Quadrant (FIG. 5b) [3, 10]: Q2
- LPS % cell toxicity (primary rat microglia [4]; rat): 78%
- Fibrin % cell toxicity (primary rat microglia [5]; [11]): 85%

Molecule: CCN1CC(CCN2CCOCC2)C(c2ccccc2)(c2ccccc2)C1=O (centres unmarked) [Doxapram Hydrochloride]
- inhibition at 10 µM ([1]; compounds at 10 μM): -18%
- inhibition at 10 µM [2, 6]: 9%
- Quadrant (FIG. 5b) [3, 7]: Q4
- LPS % cell toxicity (primary rat microglia [4]; rat): 0%
- Fibrin % cell toxicity (primary rat microglia [5]; [8]): 0%
